Earlier results, collected in patent publication US11324822B2, “Combination of HDAC inhibitor and anti-PD-1 antibody for treatment of cancer” (priority 2015, dated 2022).

How the values were obtained:
[1] = in vivo
histone acetylation = details: following the administration of entinostat

## Nc1ccccc1NC(=O)c1ccc(CNC(=O)OCc2cccnc2)cc1 [Entinostat, N-(2-aminophenyl)-4-[N-(pyridine-3-yl)methoxycarbonylamino-methyl]-benzamide]
[1]
  half-life: about 100 hours
Histone acetylation
  changes in histone acetylation following administration: persist for several weeks
